Values quoted from earlier work as cited in patent publication US20080226719A1, “Combination of Rosiglitazone and Donepezil for Improvement of Cognitive Function” (priority 2005, published 2008).
Read-outs that look alike come from different tables or passages of the source.

How the values were obtained:
[1] = tested on: individuals with mild cognitive impairment; conditions: cited from earlier work; for rate at which patients developed AD: mild cognitive impairment
[2] = tested on: patients with AD; conditions: cited from earlier work

Structure (SMILES)	risk of progressing to AD compared to placebo ([1]; carriers of one or two copies of an APOE4 allele, after three years)	rate at which patients developed AD ([1]; at three years, versus placebo)	rate at which patients developed AD ([1]; first twelve months of administration)	patients unchanged or worse ([2]; APOE4 carriers with AD, after 30 weeks)	patients showing an improvement in cognitive function ([2]; non-APOE4 carriers with AD)
COc1cc2c(cc1OC)C(=O)C(CC1CCN(Cc3ccccc3)CC1)C2 (centres unmarked) [donepezil]	reduced risk of progressing to AD	no separation between groups	reduce the rate at which patients developed AD		
Nc1c2c(nc3ccccc13)CCCC2 [tacrine]				60%	83%
